Measured values from patent US11873287B2, “Piperidine-2,6-dione derivatives and ulcerative colitis treating” (TIANJIN HEMAY PHARMACEUTICAL SCI-TECH CO., LTD, priority 2016, dated 2024).
“Also recorded” adds a separate entry of the source.

How the values were obtained:
[1] = tested on: DSS-Induced inflammatory Bowel Disease Models in Mice; test: DSS-induced inflammatory bowel disease model in mice (Biological Example 2, 0.9% DSS); assay type: in vivo, C57BL/6 mice; conditions: for body weights during the whole experiment compared with model control group: 0.9% DSS; for colon length (Mean ± SD): 0.9% DSS 5 days, end of experiment
Protocol: 66 female C57BL/6 mice were randomly divided into 6 groups: normal control group, model control group, cyclosporine A (25 mg/Kg), 5-ASA (100 mg/Kg), the compound in Example 27 (30 mg/Kg) and the compound in Example 26 (30 mg/Kg). There were 11 mice in each group (see Table 4 below). Besides the normal control group, the remaining groups were induced with 0.9% DSS for 5 days. The day of induction was the first day of the test and then normal drinking water was administered for 4 days. The normal control group was administered with normal drinking water all the time. The model control group, 5-ASA group, the compound in Example 27 group and the compound in Example 26 group were administered with 1% CMC-Na or the corresponding drug every day from the first day of the experiment to the end of the experiment. The cyclosporine A group was administered with cyclosporine A every day from the first day of experiment to the fifth day of the experiment and was administered with the corresponding volume of 1% CMC-Na every day from the sixth day to the end of the experiment due to toxicity. The normal control group was administered with the corresponding volume of 1% CMC-Na every day. The animals were treated and the indexes were tested at the end of the experiment.
The compound in Example 27, the compound in Example 26, 5-ASA or Cyclosporine A: Preparation Method: Suspended with 1% CMC-Na, and prepared when it was needed.
One-Way Anova test was performed with SPSS 17.0. The colony length was analyzed statistically between groups.

ICR mice = test: Acute toxicity experiment of single oral administration in mice; assay type: in vivo; conditions: 1000 mg/Kg single oral dose
Method in brief: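 Fasted ICR mice (19–21 g, 3 male and 3 female per group) received a single oral dose of 1000 mg/Kg, given first to one of each sex, then to the remaining four. Acute signs were scored over the first 15 min, then state, deaths and daily body weight over 7 days.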

[2] = tested on: DSS-Induced inflammatory Bowel Disease Models in Mice; test: DSS-induced inflammatory bowel disease model in mice (Biological Example 5, 1.3% DSS); assay type: in vivo, C57BL/6 mice; conditions: 30 mg/Kg i.g. Q.D, 1.3% DSS days 0-5; for inhibition in vivo at 30 mg/kg: Mus musculus, po, read-out: Inhibitory Rate of Colonic Reduction
Protocol: 40 healthy female C57BL/6 mice having weight of 16-19 g were randomly divided into 4 groups in accordance with weight. There were 10 mice in each group (see Table 6 below). The first day of the experiment was recorded as Day 0. The administration regimen and induction regimen were detailed in Table 6. The change in weight of experimental animals was recorded every day. […] Samples of animal colonic tissues were obtained to measure the length. One-way ANOVA analysis of mice weights was performed by SPSS22. Statistical analyses between groups were performed. Mann-Whitney U non-parametric test was performed on the length of colon.
The experimental method used in the present biological example is identical to those in Biological Example 3.
One-way ANOVA analysis of mice body weights and colonic weights per length was performed by SPSS22. Statistical analyses between groups were performed.
Calculation Formula of Inhibitory Rate of Colonic Reduction: (Length of Colon in Administration Group−Length of Colon in Model Group)/(Length of Colon in Blank Group−Length of Colon in Model Group)

[3] = tested on: DSS-Induced Inflammatory Bowel Disease Models in Mice; test: DSS-induced inflammatory bowel disease model in mice (Biological Example 1, 1.6% DSS); assay type: in vivo, C57BL/6J mice; conditions: for colon length (Mean ± SD): 1.6% DSS 8 days, end of experiment
Protocol: Experimental animals: C57BL/6J mice, weight of 16-18 g
Piperidine-2,6-dione derivatives, 5-ASA or Cyclosporine A: Preparation Method: Suspended with 1% CMC-Na, and prepared when it was needed.
54 C57BL/6 mice were randomly divided into 6 groups: normal control group, model control group, Example 27 groups consisting of dose of 5 mg/Kg group, dose of 10 mg/Kg group and dose of 20 mg/Kg group, and cyclosporine A-25 mg/Kg group. There were 9 mice in each group (see Table 2 below). Besides the normal control group, the remaining groups were induced with 1.6% DSS for 8 days. Normal drinking water was then administered for 3 days. The normal control group was administered with normal drinking water all the time. The model control group and the compound in Example 27 group were administered with 1% CMC-Na or the corresponding drug every day until the end of the experiment. The cyclosporine A group was administered with the corresponding drug every day from the first day of experiment to the eighth day of the experiment and was administered with the corresponding volume of 1% CMC-Na every day from the ninth day to the end of the experiment due to toxicity. At the end of the experiment, the animals were treated and the indexes such as the colon length were tested.
The homogeneity of data variance test was performed by Spss13.0. Where the variance of data was homogeneous (P>0.05), one-way ANOVA LSD test was performed. Where the variance was inhomogeneous (P≤0.05), the data were treated with extraction of a root and homogeneity of data variance test was further performed. Where the variance of data was homogeneous (P>0.05), one-way ANOVA LSD test was performed. Where the variance was still inhomogeneous (P≤0.05), then Dunnett's multiple comparison (parameter method) was performed.

Structure (SMILES) | body weights during the whole experiment compared with model control group ([1]; 30 mg/Kg i.g. Q.D) | colon length (Mean ± SD) ([1]; 30 mg/Kg i.g. Q.D) | Daily Body Weight of Tested Female Mice (Mean ± SD) (ICR mice; Day 1) | Daily Body Weight of Tested Male Mice (Mean ± SD) (ICR mice; Day 1) | Daily Body Weight of Tested Female Mice (Mean ± SD) (ICR mice; Day 2) | Daily Body Weight of Tested Male Mice (Mean ± SD) (ICR mice; Day 2) | Daily Body Weight of Tested Female Mice (Mean ± SD) (ICR mice; Day 3) | Daily Body Weight of Tested Male Mice (Mean ± SD) (ICR mice; Day 3) | Daily Body Weight of Tested Female Mice (Mean ± SD) (ICR mice; Day 4) | Daily Body Weight of Tested Male Mice (Mean ± SD) (ICR mice; Day 4) | Daily Body Weight of Tested Female Mice (Mean ± SD) (ICR mice; Day 5) | Daily Body Weight of Tested Male Mice (Mean ± SD) (ICR mice; Day 5) | Daily Body Weight of Tested Female Mice (Mean ± SD) (ICR mice; Day 6) | Daily Body Weight of Tested Male Mice (Mean ± SD) (ICR mice; Day 6) | Daily Body Weight of Tested Female Mice (Mean ± SD) (ICR mice; Day 7) | Daily Body Weight of Tested Male Mice (Mean ± SD) (ICR mice; Day 7) | Summary of toxic response of tested animals in 7 Days (ICR mice; Female) | Summary of toxic response of tested animals in 7 Days (ICR mice; Male) | Length (cm, Mean ± SD) of colon [2] | inhibition in vivo at 30 mg/kg [2] | further results
COCCCN1C(=O)CCC(N2C(=O)c3cccc(N)c3C2=O)C1=O (stereo not drawn) [Example 26, 4-amino-2-(1-(3-methoxypropyl)-2,6-dioxopiperidin-3-yl)isoindolin-1,3-dione] | higher than that of the model control group | 6.3 ± 0.5 cm | 18.0 ± 0.7 g | 18.7 ± 0.8 g | 21.9 ± 0.3 g | 23.4 ± 0.5 g | 22.1 ± 0.5 g | 25.0 ± 0.6 g | 22.4 ± 0.2 g | 26.6 ± 1.4 g | 22.7 ± 0.3 g | 27.3 ± 1.3 g | 22.6 ± 0.3 g | 28.3 ± 1.3 g | 22.4 ± 0.2 g | 28.8 ± 1.4 g | Abnormality was not observed in 7 days of the test | Abnormality was not observed in 7 days of the test | – | – | –
Nc1ccc(O)c(C(=O)O)c1 [Example 5-ASA, 5-aminosalicylic acid, reference compound] | – | – | – | – | – | – | – | – | – | – | – | – | – | – | – | – | – | – | – | – | colon length (Mean ± SD) ([1]; 100 mg/Kg i.g. Q.D): 6.1 ± 0.4 cm
COCCN1C(=O)CCC(N2C(=O)c3cccc(O)c3C2=O)C1=O (stereo not drawn) [Example 23, 4-hydroxy-2-(1-(2-methoxyethyl)-2,6-dioxopiperidin-3-yl)isoindolin-1,3-dione] | – | – | 19.1 ± 0.6 g | 19.4 ± 0.8 g | 22.4 ± 0.4 g | 24.6 ± 1.2 g | 23.0 ± 0.1 g | 24.5 ± 0.6 g | 23.0 ± 0.1 g | 24.5 ± 0.6 g | 24.6 ± 0.4 g | 25.4 ± 1.2 g | 24.8 ± 0.7 g | 28.1 ± 0.8 g | 24.6 ± 0.4 g | 29.0 ± 0.8 g | Abnormality was not observed in 7 days of the test | Abnormality was not observed in 7 days of the test | 6.9 ± 0.5 cm | 100% | –
COCCCN1C(=O)CCC(N2C(=O)c3cccc(F)c3C2=O)C1=O (stereo not drawn) [Example 17, 4-fluoro-2-(1-(3-methoxypropyl)-2,6-dioxopiperidin-3-yl)isoindolin-1,3-dione] | – | – | 18.6 ± 1.0 g | 19.0 ± 0.7 g | 21.9 ± 0.4 g | 24.0 ± 0.7 g | 22.7 ± 0.4 g | 24.6 ± 0.8 g | 22.7 ± 0.4 g | 24.6 ± 0.8 g | 23.0 ± 0.4 g | 26.1 ± 0.7 g | 23.1 ± 1.0 g | 28.1 ± 0.6 g | 22.7 ± 1.2 g | 29.3 ± 1.0 g | Motor dysfunction in one animal was observed 10 minutes after | Motor dysfunction in two animals was observed 30 minutes after | 7.0 ± 0.4 cm | 109% | –
COCCN1C(=O)CCC(N2C(=O)c3cccc(C)c3C2=O)C1=O (stereo not drawn) [Example 24, 4-methyl-2-(1-(2-methoxyethyl)-2,6-dioxopiperidin-3-yl)-isoindolin-1,3-dione] | – | – | 18.4 ± 0.7 g | 17.7 ± 0.2 g | 22.4 ± 1.0 g | 22.3 ± 0.7 g | 23.4 ± 1.0 g | 24.5 ± 1.0 g | 23.6 ± 0.9 g | 25.2 ± 1.0 g | 24.3 ± 0.6 g | 27.2 ± 1.3 g | 24.7 ± 0.6 g | 28.1 ± 2.0 g | 24.8 ± 1.5 g | 28.9 ± 1.9 g | – | – | 6.7 ± 0.6 cm | 81.8% | –
COCCN1C(=O)CCC(N2C(=O)c3cccc(N)c3C2=O)C1=O (stereo not drawn) [Example 27, 4-amino-2-(1-(2-methoxyethyl)-2,6-dioxopiperidin-3-yl)isoindolin-1,3-dione] | higher than that of the model control group | 6.3 ± 0.5 cm | – | – | – | – | – | – | – | – | – | – | – | – | – | – | – | – | 6.7 ± 0.4 cm | 81.8% | Disease Activity Index (DAI) ([3]; 5 mg/Kg i.g. Q.D, 1.6% DSS): better than the DAI of model control group; relief of reduction in colon length in the model ([3]; 5 mg/Kg i.g. Q.D, 1.6% DSS): certain relief effects; colon length (Mean ± SD) ([3]; 5 mg/Kg i.g. Q.D): 6.1 ± 0.4 cm; Disease Activity Index (DAI) ([3]; 10 mg/Kg i.g. Q.D, 1.6% DSS): better than the DAI of model control group; colon length (Mean ± SD) ([3]; 10 mg/Kg i.g. Q.D): 6.2 ± 0.4 cm; Disease Activity Index (DAI) ([3]; 20 mg/Kg i.g. Q.D, 1.6% DSS): equivalent to the DAI of the normal control group and cyclosporine A group; also recorded: better than the DAI of model control group; body weight of the animals during the experiment ([3]; 20 mg/Kg i.g. Q.D, 1.6% DSS): continuous increase trend; relief of reduction in colon length in the model ([3]; 20 mg/Kg i.g. Q.D, 1.6% DSS): significant relief effects; colon length (Mean ± SD) ([3]; 20 mg/Kg i.g. Q.D): 6.4±0.4 cm
